# Assay results published in paper PMC8012331, “Drug-induced hepatic steatosis in absence of severe mitochondrial dysfunction in HepaRG cells: proof of multiple mechanism-based toxicity” (Cell Biology and Toxicology, 2020).
# Tests used:
# [1] = system: stearoyl-CoA desaturase 1 (hSCD1); test: RT-qPCR hSCD1 mRNA in HepaRG cells; type: cell-based, human; conditions: 4 days, vs control
# Description: (§1) Total RNA was extracted with the Nucleospin RNA isolation system purchased from Macherey-Nagel (Düren, Germany), which included a DNase treatment step. Quantification of isolated RNAs was assessed using a Nanodrop 1000 (Thermo Fisher Scientific, Waltham, MA). RNAs were reverse-transcribed into cDNAs using the High-Capacity cDNA Reverse Transcription Kit purchased from Applied Biosystems (Woolston, UK). Gene expression was assessed by real-time quantitative PCR analysis (RT-qPCR) using SYBR Green PCR Master Mix (Applied Biosystems) and a 384-well QuantStudio™ 7 Flex Real-Time PCR System (Thermo Fisher Scientific). Sequences of the primers used to measure gene expression are presented in Supplementary Table 3. Expression of GAPDH was chosen as reference and the 2^−ΔΔCt calculation method was used to express the relative expression of each selected gene.
# [2] = system: permeabilized HepaRG cells; test: Oxygen consumption in permeabilized HepaRG cells (Seahorse); type: cell-based, human; conditions: for EC20 values for inhibition of O2 consumption, Glutamate + malate / EC20 values for inhibition of O2 consumption, Octanoyl-L-carnitine / EC20 values for inhibition of O2 consumption, Palmitoyl-CoA + L-carnitine / EC20 values for inhibition of O2 consumption, Palmitoyl-L-carnitine: state 3, mean ± SD, 2-3 runs
# Description: Cryopreserved differentiated HepaRG cells (HPR116, Biopredic International) were thawed and seeded at 36,000 cells/well in Seahorse XFe96 cell culture microplate (Agilent) in HepaRG® Thawing/Plating/General Purpose Medium Supplement with antibiotics (Biopredic International) combined with 100 mL of William’s Medium E (Sigma) and incubated at 37 °C with 5% CO2. The day after, medium was replaced by HepaRG Maintenance/Metabolism Medium Supplement with antibiotics (Biopredic International) combined with 100 mL of William’s Medium E. […] Two technical replicates were carried out per condition in two to three independent experimental runs.
# [3] = system: ATP citrate lyase (ACLY); test: RT-qPCR ACLY mRNA in HepaRG cells; type: cell-based, human; conditions: 4 days, vs control
# Description: as §1
# [4] = system: primary human hepatocytes (PHH); test: Neutral lipids with Nile red in primary human hepatocytes; type: cell-based; conditions: 4 days
# Description: Primary human hepatocytes (PHH) were purchased from Biopredic International (Saint-Grégoire, France). Cells were seeded by the supplier in coated 96-well plates at a density of 5 × 10^4 cells/well. Upon receipt, culture medium was removed and replaced by William’s E medium supplemented as previously described for HepaRG cell differentiation, except for DMSO set at 1%. After 2–3 days, cells were treated as for HepaRG cells. For HepaRG cells and PHH, cells were always maintained in incubators at 37 °C with 5% CO2 and saturating humidity.
# Cells were then incubated with PBS containing 0.1 μg/mL Nile red for 30 min and washed once. […] For each well, four pictures were taken at a magnification of × 20 and analyzed with Columbus software (PerkinElmer) for quantification. These pictures were always taken in four different areas around the center of each well, and these areas were the same from one well to another, as programmed by the Columbus software. This software was also designed to count only living cells after exclusion of dying cells harboring nuclei with abnormal shape or altered Hoechst intensity. […] Neutral lipids were then normalized per number of nuclei and expressed relative to control cells. Examples of images used for neutral lipid quantification are shown in Supplementary Fig. 2.
# [5] = system: acetyl-CoA carboxylase alpha (ACACA); test: RT-qPCR ACACA mRNA in HepaRG cells; type: cell-based, human; conditions: 4 days, vs control
# Description: as §1
# [6] = system: fatty acid synthase (FASN); test: RT-qPCR FASN mRNA in HepaRG cells; type: cell-based, human; conditions: 4 days, vs control
# Description: as §1
# [7] = system: apoC3 secretion; test: apoC3 level in culture medium (HTRF), HepaRG cells; type: cell-based, human; conditions: 4 days, culture medium, vs control
# Description: Briefly, HepaRG cells were seeded in 96-well plates at a density of 2.6 × 10^4 cells/cm^2 and were first incubated in William’s E medium supplemented with 10% FBS (50% FBS from Eurobio and 50% FBS from GE Healthcare), 100 U/mL penicillin, 100 μg/mL streptomycin, 2 mM glutamine, 5 μg/mL insulin, and 50 μM hydrocortisone hemisuccinate. […] During this 1-month period, the culture medium was renewed three times a week. […] HepaRG cells were next cultured in the same FBS/DMSO conditions and incubated for 4 days with each drug at different concentrations. Culture medium was renewed every day and all investigations were performed after 96 h (i.e., 24 h after the fourth treatment). These investigations were mostly performed in 96-well plates except for western blot analysis, for which 6-well plates were used. Experiments were carried out on passages 9 to 16. All drugs (except DPEN), etomoxir, lomitapide, tunicamycin, thapsigargin, and TUDCA were dissolved in DMSO. DPEN was dissolved in water.
# Apolipoprotein C3 (apoC3) level was measured using the Human Apolipoprotein C3 kit from Cisbio Bioassays (Codolet, France), according to the manufacturer’s instructions. Briefly, 10 μL of supernatants was incubated with two different specific anti-human apoC3 antibodies, one donor and one acceptor. The detection principle of apoC3 is based on HTRF® (Homogeneous Time Resolved Fluorescence), a time-resolved FRET (Förster Resonance Energy Transfer) technology. After 2 h of incubation, light emission was measured with the Infinite F Nano+ microplate reader (Tecan, Männedorf, Switzerland). ApoC3 level was calculated utilizing standard curve, based on the ratio of A665 nm/A615 nm, and normalized to the total cellular protein content. Results were expressed in comparison to control cells.
# [8] = system: isolated mouse liver mitochondria; test: Oxygen consumption of isolated mouse liver mitochondria; type: biochemical; conditions: state 3
# Description: For all aforementioned substrates, measurements were performed in parallel without or with 2 μM rotenone in order to calculate (EC20), as previously mentioned. Oxygen consumption was measured in real-time for 60 min at 37 °C in 96-well plates using a spectrofluorometer (Tecan Infinite® 200; λExcitation 380 nm; λEmission 650 nm). The slope of fluorescence increase, corresponding to the rate of oxygen consumption, was used for calculations. EC20 was thus assessed as previously described by compiling the percentage of inhibition obtained from 4 to 12 experiments.
# [9] = system: HepaRG cells; test: Cellular ATP level (CellTiter-Glo) in HepaRG cells; type: cell-based, human; conditions: 4 days, vs controls
# Description: Cellular ATP level was measured using the CellTiter-Glo® Luminescent Cell Viability assay purchased from Promega (Charbonnières, France), according to the manufacturer’s instructions. Briefly, control and treated HepaRG cells were first washed with warm PBS and kept for 30 min at room temperature in phenol red-free William’s E medium. Cells were next incubated with the CellTiter-Glo® reagent for 10 min at room temperature. Cells were then transferred in opaque-walled multiwell plates and the luminescent signal was quantified using a POLARstar Omega microplate reader (BMG Labtech, Ortenberg, Germany). Results were expressed in comparison to control cells.
# [10] = system: HepaRG cells; test: Neutral lipids with Nile red in HepaRG cells; conditions: 4 days, selected concentrations (ATP loss < 30%, not above 100 × Cmax), vs control
SMILES,hSCD1 mRNA level [1],"EC20 values for inhibition of O2 consumption, Glutamate + malate [2] [µM]","EC20 values for inhibition of O2 consumption, Octanoyl-L-carnitine [2] [µM]","EC20 values for inhibition of O2 consumption, Palmitoyl-CoA + L-carnitine [2] [µM]","EC20 values for inhibition of O2 consumption, Palmitoyl-L-carnitine [2] [µM]",ACLY mRNA level [3],Steatosis in PHH batches (six batches tested) [4],ACACA mRNA level [5],FASN mRNA level [6],Effect on apoC3 secretion [7],"EC20 for inhibition of O2 consumption, glutamate/malate [8] [µM]","EC20 for inhibition of O2 consumption, octanoyl-L-carnitine [8] [µM]","EC20 for inhibition of O2 consumption, palmitoyl-L-carnitine [8] [µM]","EC20 for inhibition of O2 consumption, palmitoyl-coenzyme A + L-carnitine [8] [µM]","EC20 for inhibition of O2 consumption, all substrates ([2]; all four substrates)",Loss of cellular ATP relative to the maximum concentration selected for the study [9],Accumulation of neutral lipids (steatosis) [10]
"COc1ccc2c(c1)c(CC(=O)O)c(C)n2C(=O)c1ccc(Cl)cc1 [INDO, indomethacin]",also increased hSCD1 mRNA level,119 ± 20,150 ± 11,79 ± 8,163 ± 26,augmented mRNA abundance,steatotic in two PHH batches,augmented mRNA abundance,augmented mRNA abundance,reduced the secretion,,,,,,,
"CO[C@H]1/C=C/O[C@@]2(C)Oc3c(C)c(O)c4c(O)c(c(/C=N/N5CCN(C)CC5)c(O)c4c3C2=O)NC(=O)/C(C)=C\C=C\[C@H](C)[C@H](O)[C@@H](C)[C@@H](O)[C@@H](C)[C@H](OC(C)=O)[C@@H]1C [RIF, rifampicin]",,> 200,> 200,> 200,> 200,,induced steatosis in only one PHH batch,,,reduced the secretion,34 ± 12,17 ± 2,16 ± 3,20 ± 4,above 200 μM,"300 µM (loss of cellular ATP above 30% of the controls for higher concentrations, as shown in Supp. fig 1)",significant accumulation of neutral lipids
